Consider 1 compound from patent US8506942B2, “Hair care composition” (Conopco, Inc., priority 2007, dated 2013).

The target of the test is T1, trypsin (Bos taurus, UniProt P00760).
T1 construct: gene PRSS1
T1 sequence (P00760 24-246): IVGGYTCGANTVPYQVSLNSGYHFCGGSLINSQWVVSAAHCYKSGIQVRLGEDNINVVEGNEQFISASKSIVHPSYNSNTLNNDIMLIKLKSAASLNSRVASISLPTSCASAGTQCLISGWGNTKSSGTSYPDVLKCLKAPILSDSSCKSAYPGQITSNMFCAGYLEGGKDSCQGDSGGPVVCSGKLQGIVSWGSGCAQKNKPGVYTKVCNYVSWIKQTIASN
As to the kind of experiment: EnzChek Protease Assay measuring trypsin activity (trypsin inhibition). In kind it is biochemical. The settings on record: for Trypsin activity (RFU): control (trypsin only) 1446 RFU; for Normalised activity: control (trypsin only) = 1.0. The source says:
Hair growth follows a cycle of activity: anagen (growth phase), catagen (transitional/regression phase), telogen (dormant) followed by renewal of anagen. The telogen phase lasts approximately 3 months. […] The major biochemical activity at this stage is one of proteolysis whereby the proteins anchoring the hair fibre to the structure of the follicle are degraded (Paus & Krejic-Papa J Dermatol Sci 1994 Vol. 7, pp. 202-209; Krejic-Papa et al J Invest Derm Vol. 106, p 557). These enzymes are of the serine protease family of proteases.
Trypsin is a serine protease.
The following experiment uses trypsin as a model for the serine proteases involved in the process of hair fall (exogen). Successful inhibition the activity of the serine proteases such as trypsin is thought to delay the onset of exogen and decrease the amount of hair fall.
The EnzChek Protease Assay (E6639, Molecular Probes) was used to measure trypsin activity.

With `CC(C)(C)C(=O)C(Oc1ccc(Cl)cc1)n1ccnc1` (centres unmarked) [Climbazole], the “Trypsin activity (RFU)” value runs as follows: (Climbazole 0.0225%) 1656 RFU; (Climbazole 0.045%) 1553 RFU. In addition, the Normalised activity reads like this: (Climbazole 0.0225%) 1.15; (Climbazole 0.045%) 1.07. The “effect on trypsin activity” value (summary of the tables of Examples 1-6) was “no effect (or perhaps a positive effect)”.
